One assay relates to HCC-1937 cells. The assay is described as follows: Chemosensitivity assay (MTT cell viability). Type of assay: cell-based, human. As to the method:
(§1) Chemosensitivity assay. Dose-response curves and IC50 values were determined using the methyl thiazolyl tetrazolium (MTT) cell viability assay as described previously (52). Cells were seeded into 96-well microtiter plates for 24 hours at a density of 5×10^3 per well. Serial drug dilutions were prepared in medium immediately before each assay and viable cell masses following 3 days or 5 days of drug exposure were determined by cell-mediated MTT reduction. Cell growth as well as drug activity were determined by measuring absorbance at 550 nm using an Anthos Labtec systems plate reader.

The subject of a further assay is MCF-10A cells. The assay is described as follows: Chemosensitivity assay (MTT cell viability). It is filed as cell-based, human. Particulars: for effect of ectopic TAp73β expression on sensitivity: retroviral TAp73β vs control vector. The protocol:
as §1

Another assay concerns MCF-7 cells. Kind of assay: Chemosensitivity assay (MTT cell viability). Type of assay: cell-based, human. Particulars: TAp73 knockdown. The protocol:
as §1

In another assay the test system is MDA-MB-468 cells. Kind of assay: Chemosensitivity assay (MTT cell viability). It is filed as cell-based, human. As to the method: as §1
The next assay deals with PUMA and NOXA. Kind of assay: QRT-PCR of pro-apoptotic effector genes after drug treatment. Type of assay: cell-based, human. The protocol: ORT-PCR analysis. Total RNA from cells was extracted using STAT-60 RNA isolation solution (Tel-Test Inc., Friendswood, USA) according to manufacturer's protocol. First-strand cDNA was synthesized from total RNA using random hexamer primers and the SuperScript II system for RT-PCR (Invitrogen). Gene expression levels were measured by real-time QRT-PCR using the iQ SYBR Green Supermix reagent (Bio-Rad) and an OPTICON™ real-time PCR detector system (MJ Research). Data analysis was performed using OPTICON MONITOR™ Analysis Software V1.08 (MJ Research). The expression of each gene was normalized to GAPDH or B2M as a reference. The relative copy numbers were calculated from an 8-point standard curve generated from a ten fold serial dilution of full length cDNA constructs as described previously (15).
Specific forward and reverse primers (respectively) for ΔNp63 were: 5′-[…]-3′ and 5′-[…]-3′; for TAp63 were 5′-[…]-3′ and 5′-[…]-3′; for TAp73 were 5′-[…]-3′ and […]-3′; for ΔNp73 were 5′-[…]-3′ and 5′-[…]-3′; for GAPDH were: 5′-[…]-3′ and 5′-[…]-3′ and for detection of B2M were 5′-[…]-3′ and 5′-[…]-3′. The conditions for all QRT-PCR reactions were: 3 min at 94° C., followed by 40 sec at 94° C., 40 sec at 60° C. and 25 sec at 72° C. for 40 cycles. All PCR products were confirmed by the presence of a single-peak upon melting-curve analysis and by gel electrophoresis. No-template (water) reaction mixtures and “no reverse transcriptase” mixtures were performed on all samples as negative controls. All experiments were performed in duplicate.

The test system of assay [1] is human breast cancer-derived cell lines. Kind of assay: p73/p63 biomarker and in vitro cisplatin sensitivity. Type of assay: cell-based. Particulars: Biomarker Positive cell lines. The protocol: as §1
Correlation of DNp63/TAp73 biomarker expression and cisplatin sensitivity in vitro. The inventors next established the threshold for DNp63/TAp73 biomarker expression that reflected the biochemcially-defined cisplatin sensitivity pathway. The inventors defined biomarker positivity as a DNp63/TAp73 ratio >2, a value that corresponds to the molar ratio of DNp63 required to inactivate essentially all (>99%) pro-apoptotic TAp73 through DNp63/TAp73 hetero-tetramer formation. The inventors assessed the ability of this defined biomarker threshold to predict cisplatin sensitivity in a limited number of human breast cancer-derived cell lines. As shown below in Table 2, the positively for the biomarker correlated with cisplatin sensitivity in these cells. […]

Another assay relates to TAp73. Kind of assay: IP/immunoblot for p73 tyrosine phosphorylation.
In a further assay the test system is ΔNp63α/TAp73 complex. Kind of assay: Co-immunoprecipitation of the ΔNp63α/TAp73 complex.
Assay [2] addresses T1, wild-type TAp73α (retrovirally expressed in MCF-10A cells) (human, UniProt O15350 1-636).
T1 construct: Ectopic wild-type TAp73α expressed via retrovirus in MCF-10A cells; It is tyrosine phosphorylated after cisplatin treatment; Construct limits and tags are not described; also called retroviral TAp73α
T1 sequence: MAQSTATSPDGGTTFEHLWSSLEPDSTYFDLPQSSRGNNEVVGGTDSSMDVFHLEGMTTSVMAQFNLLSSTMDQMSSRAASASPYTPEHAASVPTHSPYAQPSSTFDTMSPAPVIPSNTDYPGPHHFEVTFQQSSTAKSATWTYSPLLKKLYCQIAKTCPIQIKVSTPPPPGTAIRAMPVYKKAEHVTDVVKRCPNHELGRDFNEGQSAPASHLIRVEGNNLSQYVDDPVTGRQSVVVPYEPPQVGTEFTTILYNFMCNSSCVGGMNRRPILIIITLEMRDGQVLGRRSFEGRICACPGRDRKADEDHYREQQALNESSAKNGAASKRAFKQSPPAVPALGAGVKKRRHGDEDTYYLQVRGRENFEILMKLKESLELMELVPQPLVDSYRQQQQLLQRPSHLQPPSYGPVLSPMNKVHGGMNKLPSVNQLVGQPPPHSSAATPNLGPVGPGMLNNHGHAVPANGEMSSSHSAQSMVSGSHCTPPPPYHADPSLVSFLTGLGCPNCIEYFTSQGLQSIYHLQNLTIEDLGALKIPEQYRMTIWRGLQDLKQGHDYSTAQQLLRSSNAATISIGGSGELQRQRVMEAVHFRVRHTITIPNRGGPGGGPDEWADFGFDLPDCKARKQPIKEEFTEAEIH
Kind of assay: co-IP, MCF-10A cells, untreated.

A further assay concerns the target T2, Y99F TAp73α (human, UniProt O15350 1-636).
T2 construct: Expressed via retrovirus in MCF-10A cells; also called site-specific Y99F mutant TAp73α
T2 sequence: T1 sequence with Y99F
Kind of assay: IP for p63 or p73 with immunoblot, MCF-10A cells with retroviral Y99F TAp73α, after cisplatin. A general note: Immunoblotting shows a protein as a band on a membrane.

The mark [3] stands for this setting: MCF-10A cells, cisplatin treatment.

Numbering of substitutions follows the chain as printed.

The source of these data is patent US20100035257A1 (GENERAL HOSPITAL, published 2010).

For `N.N.[Cl][Pt][Cl]` [cisplatin, cis-diaminedichloroplatinuim (II)], the IC70 dose with HCC-1937 cells (HCC-1937 cells) was found to be 6.6 µM. In the assay on HCC-1937 cells (TAp73-directed lentiviral shRNA vs vector control, HCC-1937), the “effect of TAp73 knockdown on the IC50” value was “more than 10 fold”. In addition, in the assay on MCF-10A cells, the “effect of Y99F TAp73 expression on sensitivity” value is “little, if any, effect” and the “effect of ectopic TAp73β expression on sensitivity” value (“effect of ectopic TAp73β expression” for short) was “significantly increased the sensitivity”. Further, in the assay with MCF-10A cells (P<0.01), the “effect of wild-type TAp73 expression on sensitivity” value is listed as “significantly increased sensitivity”. Also, in the assay with MCF-7 cells, the “TAp73 as mediator of sensitivity” value was “not a mediator of sensitivity”. Besides, the “effect of TAp73 knockdown on the IC50” value in the assay with MDA-MB-468 cells (TAp73-directed lentiviral shRNA vs vector control, MDA MB-468) was “more than 10 fold”. Further, the “induction of PUMA and NOXA” value in the assay with PUMA and NOXA (HCC-1937 cells, following treatment) is given as “robustly induced”. The “time to TAp73-dependent transcription of PUMA and NOXA” value with PUMA and NOXA (after cisplatin treatment) is ≤ 2 h. Besides, in assay [1], the “Percent Sensitive” value is reported as 57% ( 4/7). Besides, the “tyrosine phosphorylation of p73” value in the assay with TAp73 (HCC-1937 and MB-468 cells, maximal at 6 hours) was “tyrosine phosphorylation of p73 was observed”. For the same molecule, in the assay on TAp73 (setting [3]), the “phosphorylation of Y99F TAp73” value was “little detectable phosphorylation” and the “phosphorylation of ectopic wild-type TAp73” value is recorded as “strongly phosphorylated”. In the assay on ΔNp63α/TAp73 complex (MCF-10A cells, 6 hours), the “dissociation of Y99F TAp73 from ΔNp63α” value is “essentially no dissociation” and the “dissociation of ΔNp63α from wild-type TAp73” value is given as “substantial dissociation”. The “dissociation of the ΔNp63α/TAp73 complex” value with ΔNp63α/TAp73 complex (endogenous proteins, breast cancer cells, following treatment) was “substantial dissociation”.

As to `COc1cccc2c1C(=O)c1c(O)c3c(c(O)c1C2=O)C[C@@](O)(C(=O)CO)C[C@@H]3O[C@H]1C[C@H](N)[C@H](O)[C@H](C)O1` [doxorubicin], the “effect of ectopic TAp73β expression” value with MCF-10A cells is given as “did not significantly enhance sensitivity”. In the assay on PUMA and NOXA (equally toxic concentration), the “induction of other pro-apoptotic effectors” value is recorded as “no significant induction”. In addition, the “increase in PUMA” value with PUMA and NOXA (equally toxic concentration as cisplatin) is listed as 2 fold.

`CC(=O)O[C@H]1C(=O)[C@@]2(C)[C@H]([C@H](OC(=O)c3ccccc3)[C@]3(O)C[C@H](OC(=O)[C@H](O)[C@@H](NC(=O)c4ccccc4)c4ccccc4)C(C)=C1C3(C)C)[C@]1(OC(C)=O)CO[C@@H]1C[C@@H]2O` [paclitaxel]: the “effect of ectopic TAp73β expression” value with MCF-10A cells is on record as “did not significantly enhance sensitivity”.

Consider `Cc1ccc(NC(=O)c2ccc(CN3CCN(C)CC3)cc2)cc1Nc1nccc(-c2cccnc2)n1` [STI-571, Imatinib], for which the cell proliferation result is given as “did not affect” in the assay on HCC-1937 cells (HCC-1937, at the dose used in these assays) and “did not affect” in the assay with MDA-MB-468 cells (MDA-MB-468, at the dose used in these assays). The “rescue from cell death induced by cisplatin” value is on record as “substantial rescue” in the assay with HCC-1937 cells (pretreatment, then cisplatin, HCC-1937) and “substantial rescue” in the assay on MDA-MB-468 cells (pretreatment, then cisplatin, MDA-MB-468). Also, the “baseline NOXA expression” value in the assay on PUMA and NOXA (HCC-1937 and MDA-MB-468 cells) is listed as “no effect”. For the same molecule, the “p73-dependent induction of NOXA following cisplatin treatment” value in the assay with PUMA and NOXA (pretreatment, HCC-1937 and MDA-MB-468 cells, 6 hours) is “blocked”.

B1: ΔNp63α (other)
chain: MLYLENNAQTQFSEPQYTNLGLLNSMDQQIQNGSSSTSPYNTDHAQNSVTAPSPYAQPSSTFDALSPSPAIPSNTDYPGPHSFDVSFQQSSTAKSATWTYSTELKKLYCQIAKTCPIQIKVMTPPPQGAVIRAMPVYKKAEHVTEVVKRCPNHELSREFNEGQIAPPSHLIRVEGNSHAQYVEDPITGRQSVLVPYEPPQVGTEFTTVLYNFMCNSSCVGGMNRRPILIIVTLETRDGQVLGRRCFEARICACPGRDRKADEDSIRKQQVSDSTKNGDGTKRPFRQNTHGIQMTSIKKRRSPDDELLYLPVRGRETYEMLLKIKESLELMQYLPQHTIETYRQQQQQQHQHLLQKQTSIQSPSSYGNSSPPLNKMNSMNKLPSVSQLINPQQRNALTPTTIPDGMGANIPMMGTHMPMAGDMNGLSPTQALPPPLSMPSTSHCTPPPPYPTDCSIVSFLARLGCSSCLDYFTTQGLTTIYQIEHYSMDDLASLKIPEQFRHAIWKGILDHRQLHEFSSPSHLLRTPSSASTVSVGSSETRGERVIDAVRFTLRQTISFPPRDEWNDFNFDMDARRNKQQRIKEEGE
notes: The text mentions hetero-tetramers with TAp73, but the stoichiometry was not measured; also called DNp63a; DNp63α
B1: the binding result (in assay [2]; with Y99F TAp73α) was “binds” throughout.
